Like-named read-outs stand apart in the source and are kept apart here.
Columns and labels:
[1] = system: allo-reactive cytotoxic T cells in spleen of EL4-immunized BALB/c mice; test: suppression of allo-reactive cytotoxic T cells induced by immunization of mouse with allogenic cells; type: in vivo
Protocol: Male 5- to 7-week-old BALB/c mice (H-2^d) were immunized with leukemia cell EL4 derived from C57BL/6 mice (H-2^b) (10^7 cells/mouse, intraperitoneal administration), and the test substance was administered intraperitoneally 5 times at the doses of 0.001 to 3 mg/kg/day or orally at the doses of 0.3 to 10 mg/kg/day from the day of immunization. Nine to ten days after immunization, the spleen was resected from the mice to prepare a single cell suspension and the suspension was used as effector cell suspension. The ^51 Cr-release assay was carried out in the same way as in Experiment Example 3, using EL4 cells as the target cells to measure the cytotoxic activity.
The activity of allo-reactive cytotoxic T cell is indicated by lytic unit (LU) per spleen. One lytic unit (LU) is defined as the number of effector cells required to cause 25% lysis of 5×10^3 target cells. At the same time, the body weight of mouse and number of spleen cells were also determined.

U937 = test: cytotoxicity to cultured tumor cell line U937; type: cell-based, human
Protocol: Cytotoxicity to various human tumor cell lines was examined as follows:
Cells of human cell lines, K562, MOLT4, U937 and HL60 were respectively suspended to the concentration of 4×10^5 cells/ml in the RPMI1640 culture medium supplemented with 20% FCS. Fifty μl of each suspension was added to each well of a 96-well microtest plate to which 50 μl of the test solution had been added. After culturing the suspension at 37° C. in an atmosphere of 5% carbon dioxide for 72 hours, the absorbancy at 570 nm was measured in the same way as with the colorimetry using MTT in Experiment Example 1, and the percent suppression was calculated by the following formula, which was used as an index of cytotoxicity.

[2] = cytotoxicity to cultured tumor cell line U937; type: cell-based, human; conditions: human, u937 cells, read-out: Suppression
[3] = system: allo-specific cytotoxic antibody in serum of EL4-immunized BALB/c mice; test: suppression of allo-specific cytotoxic antibody production induced by allogenic cell immunization of mouse; type: in vivo
Protocol: Male 5- to 7-week-old BALB/c mice were immunized with leukemia cell EL4 derived from C57BL/6 mice (10^7 cells/mouse, intraperitoneal administration) in the same way as in Experiment Example 9, and the […] Nine to ten days after immunization, a serum was collected from the mice. Fifty μl of the two-fold serial dilution of the serum, 50 μl of a guinea pig complement and EL4 cell suspension labelled with ^51 Cr as the target cell (5×10^4 cells/ml, 100 μl) were together added to a 96-well microtest plate. After incubation at 37° C. for 1 hour, the amount of ^51 Cr released in the supernatant was measured, and the complement-dependent cytotoxicity was calculated by the following formula. [formula]
The value of allo-specific cytotoxic antibody determined as above was expressed by the titer calculated on the basis of the concentration at which the releasing amount of ^51 Cr was 50% of that of ^51 Cr-labelled target cells treated with 0.1 N HCl.

[4] = system: IL-2 production in mouse allogenic MLC; test: suppression of IL-2 production in mouse allogenic MLC; type: cell-based
Protocol: (§1) Mouse allogenic MLC was carried out as follows:
(§2) After termination of culture, the supernatant was collected and used as the supernatant of mouse allogenic MLC.
The IL-2 and IL-3 activities in the supernatant of mouse allogenic MLC were assayed in the same way as in Experiment Example 4.

[5] = system: IL-3 production in mouse allogenic MLC; test: suppression of IL-3 production in mouse allogenic MLC; type: cell-based
Protocol: as §1, §2

[6] = 0.01 mg/kg/day ip × 5, Table 9A
[7] = 0.03 mg/kg/day ip × 5, Table 9A
[8] = 0.01 mg/kg/day ip × 5, Table 10A
[9] = 0.03 mg/kg/day ip × 5, Table 10A
[10] = 0.1 mg/kg/day ip × 5, Table 10A
[11] = 0.3 mg/kg/day ip × 5, Table 10A
[12] = 0.3 mg/kg/day po × 5, Table 10B
[13] = Mus musculus, 48 h, 0.0001 μg/ml
[14] = Mus musculus, 48 h, 0.001 μg/ml

SMILES: CCCCCCCCCCCCCCCC[C@@H](O)[C@H](O)[C@@](N)(CO)C(=O)O [Example 2]
- Body weight 9 days after immunization [1, 6]: 29.0 ± 1.7 g
- Cytotoxic T cell activity [1, 6]: 724 ± 202 LU/spleen
- Cytotoxic T cell activity, suppression [1, 6]: 28.5%
- Number of spleen cells [1, 6]: 3.2 ± 0.5 × 10^8 cell
- Body weight 9 days after immunization [1, 7]: 28.5 ± 1.0 g
- Cytotoxic T cell activity [1, 7]: 536 ± 272 LU/spleen
- Cytotoxic T cell activity, suppression [1, 7]: 47.0%
- Number of spleen cells [1, 7]: 2.6 ± 0.6 × 10^8 cell
- Body weight 9 days after immunization ([1]; 0.1 mg/kg/day ip × 5, Table 9A): 28.3 ± 1.4 g
- Cytotoxic T cell activity ([1]; 0.1 mg/kg/day ip × 5, Table 9A): 527 ± 172 LU/spleen
- Cytotoxic T cell activity, suppression ([1]; 0.1 mg/kg/day ip × 5, Table 9A): 47.9%
- Number of spleen cells ([1]; 0.1 mg/kg/day ip × 5, Table 9A): 2.8 ± 0.5 × 10^8 cell
- Body weight 9 days after immunization ([1]; 0.3 mg/kg/day ip × 5, Table 9A): 29.0 ± 1.8 g
- Cytotoxic T cell activity ([1]; 0.3 mg/kg/day ip × 5, Table 9A): 525 ± 58 LU/spleen
- Cytotoxic T cell activity, suppression ([1]; 0.3 mg/kg/day ip × 5, Table 9A): 48.1%
- Number of spleen cells ([1]; 0.3 mg/kg/day ip × 5, Table 9A): 3.1 ± 0.5 × 10^8 cell
- Body weight 9 days after immunization ([1]; 0.3 mg/kg/day po × 5, Table 9B): 28.0 ± 0.7 g
- Cytotoxic T cell activity ([1]; 0.3 mg/kg/day po × 5, Table 9B): 323 ± 97 LU/spleen
- Cytotoxic T cell activity, suppression ([1]; 0.3 mg/kg/day po × 5, Table 9B): 65.0%
- Number of spleen cells ([1]; 0.3 mg/kg/day po × 5, Table 9B): 1.4 ± 0.2 × 10^8
- Body weight 9 days after immunization ([1]; 1 mg/kg/day ip × 5, Table 9A): 27.3 ± 1.9 g
- Cytotoxic T cell activity ([1]; 1 mg/kg/day ip × 5, Table 9A): 318 ± 128 LU/spleen
- Cytotoxic T cell activity, suppression ([1]; 1 mg/kg/day ip × 5, Table 9A): 68.6%
- Number of spleen cells ([1]; 1 mg/kg/day ip × 5, Table 9A): 3.2 ± 0.6 × 10^8 cell
- Body weight 9 days after immunization ([1]; 1 mg/kg/day po × 5, Table 9B): 29.0 ± 1.7 g
- Cytotoxic T cell activity ([1]; 1 mg/kg/day po × 5, Table 9B): 473 ± 92 LU/spleen
- Cytotoxic T cell activity, suppression ([1]; 1 mg/kg/day po × 5, Table 9B): 48.7%
- Number of spleen cells ([1]; 1 mg/kg/day po × 5, Table 9B): 1.4 ± 0.3 × 10^8
- Body weight 9 days after immunization ([1]; 3 mg/kg/day ip × 5, Table 9A): 28.6 ± 1.7 g
- Cytotoxic T cell activity ([1]; 3 mg/kg/day ip × 5, Table 9A): < 50 LU/spleen
- Cytotoxic T cell activity, suppression ([1]; 3 mg/kg/day ip × 5, Table 9A): 95.1%
- Number of spleen cells ([1]; 3 mg/kg/day ip × 5, Table 9A): 2.7 ± 0.4 × 10^8 cell
- Body weight 9 days after immunization ([1]; 3 mg/kg/day po × 5, Table 9B): 29.4 ± 1.5 g
- Cytotoxic T cell activity ([1]; 3 mg/kg/day po × 5, Table 9B): 427 ± 100 LU/spleen
- Cytotoxic T cell activity, suppression ([1]; 3 mg/kg/day po × 5, Table 9B): 53.7%
- Number of spleen cells ([1]; 3 mg/kg/day po × 5, Table 9B): 2.0 ± 0.3 × 10^8
- Body weight 9 days after immunization ([1]; 10 mg/kg/day po × 5, Table 9B): 27.4 ± 1.7 g
- Cytotoxic T cell activity ([1]; 10 mg/kg/day po × 5, Table 9B): 274 ± 82 LU/spleen
- Cytotoxic T cell activity, suppression ([1]; 10 mg/kg/day po × 5, Table 9B): 70.3%
- Number of spleen cells ([1]; 10 mg/kg/day po × 5, Table 9B): 1.6 ± 0.3 × 10^8
- induction of allo-reactive cytotoxic T cells (in words) ([1]; 5 times intraperitoneal or oral): strongly suppresses the induction of allo-reactive cytotoxic T cells
- Absorbancy (U937; 0.1 μg/ml): 0.669 ± 0.030
- Absorbancy (U937; 1 μg/ml): 0.681 ± 0.009
- Absorbancy (U937; 10 μg/ml): 0.673 ± 0.111
- cytotoxicity at 72 h ([2]; 1 μg/ml): 0.1%
- cytotoxicity at 72 h ([2]; 10 μg/ml): 1.3%
- cytotoxicity at 72 h ([2]; 0.1 μg/ml): 1.9%
- Allogenic cell-specific antibody in serum, suppression [3, 8]: 0%
- Allogenic cell-specific antibody in serum, titer [3, 8]: 119 ± 47
- Allogenic cell-specific antibody in serum, suppression [3, 9]: 0%
- Allogenic cell-specific antibody in serum, titer [3, 9]: 87 ± 55
- Allogenic cell-specific antibody in serum, suppression [3, 10]: 0%
- Allogenic cell-specific antibody in serum, titer [3, 10]: 89 ± 32
- Allogenic cell-specific antibody in serum, suppression [3, 11]: 39.9%
- Allogenic cell-specific antibody in serum, titer [3, 11]: 50 ± 48
- Allogenic cell-specific antibody in serum, suppression [3, 12]: 39.3%
- Allogenic cell-specific antibody in serum, titer [3, 12]: 130 ± 45
- Allogenic cell-specific antibody in serum, suppression ([3]; 1 mg/kg/day ip × 5, Table 10A): > 80%
- Allogenic cell-specific antibody in serum, titer ([3]; 1 mg/kg/day ip × 5, Table 10A): < 16
- Allogenic cell-specific antibody in serum, suppression ([3]; 1 mg/kg/day po × 5, Table 10B): 37.9%
- Allogenic cell-specific antibody in serum, titer ([3]; 1 mg/kg/day po × 5, Table 10B): 133 ± 50
- Allogenic cell-specific antibody in serum, suppression ([3]; 3 mg/kg/day ip × 5, Table 10A): > 80%
- Allogenic cell-specific antibody in serum, titer ([3]; 3 mg/kg/day ip × 5, Table 10A): < 16
- Allogenic cell-specific antibody in serum, suppression ([3]; 3 mg/kg/day po × 5, Table 10B): 58.9%
- Allogenic cell-specific antibody in serum, titer ([3]; 3 mg/kg/day po × 5, Table 10B): 88 ± 47
- Allogenic cell-specific antibody in serum, suppression ([3]; 10 mg/kg/day po × 5, Table 10B): 68.7%
- Allogenic cell-specific antibody in serum, titer ([3]; 10 mg/kg/day po × 5, Table 10B): 67 ± 16
- allo-specific cytotoxic antibody production in serum (in words) ([3]; intraperitoneal or oral, Tables 10A to 10D): strongly suppresses allo-specific cytotoxic antibody production in serum
- IL-2 activity ([4]; 0.0001 μg/ml): 3.9 U/ml
- IL-2 activity ([4]; 0.001 μg/ml): 3.1 U/ml
- IL-2 activity ([4]; 0.01 μg/ml): 3.6 U/ml
- IL-2 activity ([4]; 0.1 μg/ml): 1 U/ml
- IL-2 activity ([4]; 1 μg/ml): 1.6 U/ml
- inhibition at 0.0001 µg/mL [4, 13]: 13.3%
- inhibition at 0.001 µg/mL [4, 14]: 31.1%
- inhibition at 0.01 µg/mL ([4]; Mus musculus, 48 h, 0.01 μg/ml): 17.8%
- inhibition at 0.1 µg/mL ([4]; Mus musculus, 48 h, 0.1 μg/ml): 68.9%
- inhibition at 1 µg/mL ([4]; Mus musculus, 48 h, 1 μg/ml): 64.4%
- IL-3 activity ([5]; 0.0001 μg/ml): 42.8 U/ml
- IL-3 activity ([5]; 0.001 μg/ml): 45.3 U/ml
- IL-3 activity ([5]; 0.01 μg/ml): 42.2 U/ml
- IL-3 activity ([5]; 0.1 μg/ml): 23.6 U/ml
- IL-3 activity ([5]; 1 μg/ml): 11.0 U/ml
- inhibition at 0.0001 µg/mL [5, 13]: 16.3%
- inhibition at 0.001 µg/mL [5, 14]: 9.9%
- inhibition at 0.01 µg/mL ([5]; Mus musculus, 48 h, 0.01 μg/ml): 17.9%
- inhibition at 0.1 µg/mL ([5]; Mus musculus, 48 h, 0.1 μg/ml): 65.3%
- inhibition at 1 µg/mL ([5]; Mus musculus, 48 h, 1 μg/ml): 97.4%

Source: patent US5068247A, “2-aminopentanoic acid compounds and their use as immunosuppressants” (priority 1989, dated 1991)
